# pIC50: −log10 of the molar value. Read-outs that look alike come from different tables or passages of the source.
# How the values were obtained:
# Type in all cases: biochemical
# Plasmine (human plasma) = target: T1, Plasmine (human plasma) (Homo sapiens, UniProt P00747); assay: Plasmin inhibition, chromogenic substrate Biophen CS-21(66)
# T1 construct: purchased Sigma-Aldrich; host or cells: human plasma
# Text: (§1) The IC50 values For KLK1, KLK2 and KLK8 were obtained in a similar way. For plasmin, tPA, thrombin, Fxa, HNE, Plasma kallikrein Chromogenic substrates were used (absorption: 405 nm). (KLK2, KLK4, KLK8 were supplied by Viktor Magdolen TUMunich (TUM)).
# KLK8 (human) = target: T2, KLK8 (human) (Homo sapiens, UniProt O60259); assay: KLK8 inhibition, fluorogenic substrate Boc-Val-Pro-Arg-AMC
# T2 construct: purchased Viktor Magdolen, TUMunich (TUM), supplied by an academic laboratory
# T2 sequence (O60259 33-260): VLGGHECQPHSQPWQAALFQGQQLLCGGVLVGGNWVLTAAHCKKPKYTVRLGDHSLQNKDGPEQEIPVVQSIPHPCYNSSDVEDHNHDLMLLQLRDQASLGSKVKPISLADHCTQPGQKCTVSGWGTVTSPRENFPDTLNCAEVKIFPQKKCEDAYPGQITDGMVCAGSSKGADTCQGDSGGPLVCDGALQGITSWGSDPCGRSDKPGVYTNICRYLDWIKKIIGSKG
# Text: as §1
# uPA (recombinant) = target: T3, uPA (recombinant) (Homo sapiens, UniProt P00749); assay: uPA inhibition, chromogenic substrate Biophen CS-61(44)
# T3 construct: purchased Nodia
# KLK2 (human) = target: T4, KLK2 (human) (Homo sapiens, UniProt P20151); assay: KLK2 inhibition, fluorogenic substrate H-Pro-Phe-Arg-AMC
# T4 construct: purchased Viktor Magdolen, TUMunich (TUM), supplied by an academic laboratory
# Text: as §1
# KLK1 (human) = target: T5, KLK1 (human) (Homo sapiens, UniProt P06870); assay: KLK1 inhibition, fluorogenic substrate H-Pro-Phe-Arg-AMC
# T5 construct: purchased Prospec
# Text: as §1
# Matriptase = target: T6, Matriptase (Homo sapiens, UniProt Q9Y5Y6); assay: Matriptase inhibition
# T6 sequence (Q9Y5Y6 1-855): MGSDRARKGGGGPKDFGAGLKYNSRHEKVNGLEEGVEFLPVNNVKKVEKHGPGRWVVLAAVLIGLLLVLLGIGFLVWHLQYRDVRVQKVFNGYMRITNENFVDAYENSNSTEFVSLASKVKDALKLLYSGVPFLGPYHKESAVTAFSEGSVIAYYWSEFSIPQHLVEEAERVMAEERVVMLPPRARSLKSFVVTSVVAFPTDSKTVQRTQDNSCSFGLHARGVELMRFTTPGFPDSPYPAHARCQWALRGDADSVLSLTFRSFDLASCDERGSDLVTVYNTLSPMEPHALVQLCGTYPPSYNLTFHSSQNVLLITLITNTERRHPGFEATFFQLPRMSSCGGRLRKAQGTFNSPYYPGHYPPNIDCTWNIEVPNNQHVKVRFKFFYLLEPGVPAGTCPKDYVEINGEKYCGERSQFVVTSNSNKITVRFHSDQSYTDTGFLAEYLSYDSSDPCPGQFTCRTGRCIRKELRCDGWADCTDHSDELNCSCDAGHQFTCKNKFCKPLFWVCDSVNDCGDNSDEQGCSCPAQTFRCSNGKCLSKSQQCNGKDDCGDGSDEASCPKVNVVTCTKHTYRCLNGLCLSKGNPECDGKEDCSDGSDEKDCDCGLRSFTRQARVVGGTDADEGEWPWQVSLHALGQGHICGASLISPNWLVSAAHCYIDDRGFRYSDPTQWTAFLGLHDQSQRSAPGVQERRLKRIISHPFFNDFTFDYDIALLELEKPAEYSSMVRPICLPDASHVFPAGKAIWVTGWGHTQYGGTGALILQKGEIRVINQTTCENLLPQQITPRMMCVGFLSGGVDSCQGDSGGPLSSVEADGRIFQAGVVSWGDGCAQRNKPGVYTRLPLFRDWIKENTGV
# KLK4 [1] = target: T7, KLK4 (Homo sapiens, UniProt Q9Y5K2); assay: KLK4 enzymatic inhibition, fluorogenic substrate Boc-Val-Pro-Arg-AMC
# T7 construct: purchased Viktor Magdolen (TUM), supplied by an academic laboratory
# Description: The substrate was obtained form Bachem and the enzyme was provided by Viktor Magdolen (TUM). The reaction was monitored with an excitation wavelength of 355 nm and emission wavelength of 460 nm. The initial rate was determined between 2500000 and 4500000 mRFU/min. The reaction mixture contained 25 μM substrate and approximately 1 mU of enzyme in 145 μL of buffer in a final volume of […]. A 50 mM Tris buffer, pH 8.3, was used. From each inhibitor concentration, 5 μL was added, obtaining a final concentration from 0 to 250 μM in a total volume of 0.2 mL. Activity measurements were routinely performed in duplicate. […] IC50 values were obtained by fitting the data with the four-parameter logistics equation using Grafit 7.
# [formula] where s=slope factor, v=rate, I0=inhibitor concentration, and range=the fitted uninhibited value minus the background. The equation assumes they falls with increasing x.
# (§2) Inhibitor stock solutions were prepared in DMSO and stored at −20° C. Because the compounds described in this paper completely inactivate KLK4 following pseudo first-order kinetics, the IC50 value is inversely correlated with the second-order rate constant of inactivation. For a simple pseudo first-order inactivation process, the activity after incubation with inhibitor (vi) varies with the inhibitor concentration (i), as described in the following equation: vi=v0×e^−k t, where vo is the activity in absence of inhibitor, k is the second-order rate constant of inactivation, and t is the time. The inactivation rate constant was determined from the time course of inhibition.
# KLK4 [2] = target: T7, KLK4; assay: KLK4 inactivation kinetics from progress curves (kobs vs inhibitor concentration); settings: for Irreversible (KLK4): irreversible binding to KLK4, Yes/No
# Description: as §2
# The inhibitor was mixed with the substrate (250 μM final concentration), and the buffer solution with the enzyme was added at the time zero. […] The progress curves show the absorbance of aminomethylcoumarine produced as a function of time. Initially, no inhibitor is bound to the enzyme, and the tangent to the progress curve (dA/dt) is proportional to the concentration of the free enzyme. The concentration of free enzyme decreases over time due to the kinetics of inhibitor binding, as described above. Progress curves were recorded in pseudo first-order conditions ([I]0>>[E]0) and with less than 10% conversion of the substrate during the entire time course. In these conditions, dA/dt decreases exponentially with time. The progress curves were fitted with the integrated rate equation to yield a value for kobs, a pseudofirst-order rate constant At=v0[1−e^−k^obs^t]/kobs+A0 where At=absorbance at time t, A0=absorbance at time zero, and v0=uninhibited initial rate.
# The apparent second-order rate constant (kapp) was calculated from the slope of the linear part of the plot of kobs versus the inhibitor concentration ([I]0). In case of competition between the inhibitor and the substrate, kapp is smaller than the “real” second order rate constant k discussed above because a certain fraction of the enzyme is present as an enzyme-substrate complex. kapp depends on the substrate concentration used in the experiment, as described by Lambeir et al. (Lambeir, Borloo et al. 1996).
# tPA (recombinant) = target: T8, tPA (recombinant) (Homo sapiens, UniProt P00750); assay: tPA inhibition, chromogenic substrate Biophen CS-05(88); settings: Tris buffer pH 8.3; read-out: IC50 tPA
# T8 construct: purchased Nodia
# Text: as §1
# PlasmaKLK (human plasma) = target: T9, PlasmaKLK (human plasma) (Homo sapiens, UniProt P03952); assay: Plasma kallikrein inhibition, chromogenic substrate Biophen CS-31(02); settings: Plasma KLK; Tris buffer pH 7.8; read-out: IC50 pKLK
# T9 construct: purchased Sigma-Aldrich; host or cells: human plasma
# Text: as §1
# Thrombine (human plasma) = target: T10, Thrombine (human plasma) (Homo sapiens, UniProt P00734); assay: Thrombin inhibition, chromogenic substrate Biophen CS-21(66)
# T10 construct: purchased Sigma-Aldrich; host or cells: human plasma
# FXa = target: T11, FXa (Homo sapiens, UniProt P00742); assay: FXa inhibition, chromogenic substrate Biophen CS-11(32); settings: Tris buffer pH 8.3; read-out: IC50 FXa
# T11 construct: purchased Nodia
# Text: as §1
# [3] = Plasmin, Tris buffer pH 7.4, read-out: IC50 PLM
# [4] = Tris buffer pH 8.8, read-out: IC50 uPA
# [5] = Thrombin, Tris buffer pH 8.3, read-out: IC50 THR
# [6] = 15 min pre-incubation at 37° C., Tris buffer pH 8.3, read-out: IC50 KLK4
# [7] = Tris buffer pH 7.8, read-out: IC50 KLK1
# T5 sequence (P06870 25-262): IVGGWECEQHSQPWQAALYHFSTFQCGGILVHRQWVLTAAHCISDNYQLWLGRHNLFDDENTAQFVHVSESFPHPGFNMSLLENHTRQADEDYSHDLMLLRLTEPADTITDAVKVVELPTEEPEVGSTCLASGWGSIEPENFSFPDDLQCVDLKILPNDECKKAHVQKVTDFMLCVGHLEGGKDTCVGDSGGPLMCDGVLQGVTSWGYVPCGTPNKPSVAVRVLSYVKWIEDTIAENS
# T11 sequence (P00742 235-488 limits assumed): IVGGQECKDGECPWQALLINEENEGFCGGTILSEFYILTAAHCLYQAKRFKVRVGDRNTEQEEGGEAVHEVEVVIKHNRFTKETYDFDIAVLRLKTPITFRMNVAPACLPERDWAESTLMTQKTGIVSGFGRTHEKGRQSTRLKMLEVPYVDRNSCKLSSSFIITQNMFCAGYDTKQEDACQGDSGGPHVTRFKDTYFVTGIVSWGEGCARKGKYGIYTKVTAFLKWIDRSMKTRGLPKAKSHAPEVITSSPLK
# T11 sequence (P00742 41-179 partner limits assumed): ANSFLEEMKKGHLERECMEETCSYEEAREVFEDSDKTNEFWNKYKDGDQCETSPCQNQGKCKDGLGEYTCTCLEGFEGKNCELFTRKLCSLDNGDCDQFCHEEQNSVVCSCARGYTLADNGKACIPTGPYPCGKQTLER
# T7 sequence (Q9Y5K2 31-254): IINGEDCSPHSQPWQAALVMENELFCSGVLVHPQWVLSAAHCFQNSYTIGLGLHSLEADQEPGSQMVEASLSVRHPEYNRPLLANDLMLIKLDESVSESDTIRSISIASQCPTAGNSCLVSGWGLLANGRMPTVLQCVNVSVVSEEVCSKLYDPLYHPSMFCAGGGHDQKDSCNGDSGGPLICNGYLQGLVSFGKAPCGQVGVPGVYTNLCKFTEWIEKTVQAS
# T8 sequence (P00750 36-562, species assumed): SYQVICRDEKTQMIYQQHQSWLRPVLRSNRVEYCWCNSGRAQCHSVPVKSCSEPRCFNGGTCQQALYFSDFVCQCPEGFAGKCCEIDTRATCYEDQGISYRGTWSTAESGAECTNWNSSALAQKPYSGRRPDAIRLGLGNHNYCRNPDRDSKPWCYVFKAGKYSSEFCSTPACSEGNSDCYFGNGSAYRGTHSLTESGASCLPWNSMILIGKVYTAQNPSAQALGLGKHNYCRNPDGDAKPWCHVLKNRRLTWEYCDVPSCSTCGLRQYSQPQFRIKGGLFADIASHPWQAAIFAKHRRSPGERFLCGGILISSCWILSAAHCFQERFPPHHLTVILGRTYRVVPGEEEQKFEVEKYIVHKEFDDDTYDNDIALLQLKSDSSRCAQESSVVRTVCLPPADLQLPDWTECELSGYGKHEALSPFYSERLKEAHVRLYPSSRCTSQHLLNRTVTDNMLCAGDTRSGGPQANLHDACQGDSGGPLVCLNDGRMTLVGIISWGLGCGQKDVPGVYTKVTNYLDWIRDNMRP
# T4 sequence (P20151 25-261): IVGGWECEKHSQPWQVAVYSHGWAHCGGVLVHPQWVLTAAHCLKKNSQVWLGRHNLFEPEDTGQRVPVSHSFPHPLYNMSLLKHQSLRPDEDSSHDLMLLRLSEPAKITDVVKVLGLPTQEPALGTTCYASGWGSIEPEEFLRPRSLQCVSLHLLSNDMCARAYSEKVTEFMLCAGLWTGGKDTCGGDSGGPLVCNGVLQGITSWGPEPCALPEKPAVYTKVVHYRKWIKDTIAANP
# T9 sequence (P03952 391-638 limits assumed): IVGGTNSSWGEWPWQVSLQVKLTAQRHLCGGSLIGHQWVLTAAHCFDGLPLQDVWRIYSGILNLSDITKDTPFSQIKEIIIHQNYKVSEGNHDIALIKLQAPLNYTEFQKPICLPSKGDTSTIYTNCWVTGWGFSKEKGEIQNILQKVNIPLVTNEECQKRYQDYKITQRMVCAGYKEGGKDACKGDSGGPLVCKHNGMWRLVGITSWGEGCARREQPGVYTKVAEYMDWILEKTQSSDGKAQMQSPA
# T9 sequence (P03952 20-390 partner limits assumed): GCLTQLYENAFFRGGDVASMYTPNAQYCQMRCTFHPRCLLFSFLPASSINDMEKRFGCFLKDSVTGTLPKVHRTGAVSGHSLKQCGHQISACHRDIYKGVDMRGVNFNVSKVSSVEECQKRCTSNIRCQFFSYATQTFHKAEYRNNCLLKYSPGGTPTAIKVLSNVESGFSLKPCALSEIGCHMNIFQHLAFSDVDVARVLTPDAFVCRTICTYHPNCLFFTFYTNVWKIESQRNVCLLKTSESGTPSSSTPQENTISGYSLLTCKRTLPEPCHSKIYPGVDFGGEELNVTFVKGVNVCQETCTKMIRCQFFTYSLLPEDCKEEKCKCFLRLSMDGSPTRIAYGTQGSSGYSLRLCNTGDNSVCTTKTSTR
# T1 sequence (P00747 581-810 limits assumed): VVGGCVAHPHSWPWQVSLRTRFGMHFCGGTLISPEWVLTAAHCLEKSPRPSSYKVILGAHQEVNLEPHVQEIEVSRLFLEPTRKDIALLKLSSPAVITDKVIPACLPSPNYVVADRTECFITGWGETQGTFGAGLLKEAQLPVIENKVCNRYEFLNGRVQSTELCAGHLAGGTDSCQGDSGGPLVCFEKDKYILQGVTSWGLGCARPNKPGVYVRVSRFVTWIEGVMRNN
# T1 sequence (P00747 98-580 partner limits assumed): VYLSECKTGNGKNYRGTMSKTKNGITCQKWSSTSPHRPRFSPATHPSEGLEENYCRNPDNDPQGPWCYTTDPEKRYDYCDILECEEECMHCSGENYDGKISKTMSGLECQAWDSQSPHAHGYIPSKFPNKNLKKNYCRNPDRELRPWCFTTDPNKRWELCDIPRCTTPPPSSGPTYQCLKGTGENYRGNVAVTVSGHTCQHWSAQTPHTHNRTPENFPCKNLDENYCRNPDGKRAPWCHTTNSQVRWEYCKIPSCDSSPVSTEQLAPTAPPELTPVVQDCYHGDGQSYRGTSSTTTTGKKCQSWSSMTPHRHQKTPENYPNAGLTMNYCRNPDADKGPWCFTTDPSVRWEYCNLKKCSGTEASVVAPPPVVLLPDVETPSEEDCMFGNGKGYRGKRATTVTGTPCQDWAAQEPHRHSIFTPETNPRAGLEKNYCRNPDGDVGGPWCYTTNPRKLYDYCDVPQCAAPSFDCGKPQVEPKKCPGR
compound,measurement,setting,value
"N=C(N)Nc1ccc(C(NC(=O)OCCCC(F)(F)F)P(=O)(Oc2ccccc2)Oc2ccccc2)cc1 (centres unmarked) [Compound 107, 4,4,4-trifluorobutyl ((diphenoxyphosphoryl)(4-guanidinophenyl)methyl) carbamate]",pIC50,Plasmine (human plasma),3.60 to 5.00
same,pIC50,KLK8 (human),5.00 to 5.60
same,pIC50,uPA (recombinant),5.00 to 5.60
same,pIC50,KLK2 (human),6.00 to 7.00
same,pIC50,KLK1 (human),5.00 to 5.60
same,pIC50,Matriptase,5.00 to 5.60
same,pIC50,KLK4 [1],> 7.00
"CSCCOC(=O)NC(c1ccc(NC(=N)N)cc1)P(=O)(Oc1ccccc1)Oc1ccccc1 (centres unmarked) [Compound 108, 2-(methylthio)ethyl ((diphenoxyphosphoryl)(4-guanidinophenyl)methyl) carbamate]",pIC50,Plasmine (human plasma),3.60 to 5.00
same,pIC50,KLK8 (human),5.60 to 6.00
same,pIC50,uPA (recombinant),5.00 to 5.60
same,pIC50,KLK2 (human),6.00 to 7.00
same,pIC50,KLK1 (human),5.60 to 6.00
same,pIC50,Matriptase,5.00 to 5.60
same,pIC50,KLK4 [1],> 7.00
"N=C(N)Nc1ccc(C(NC(=O)OCc2c(F)c(F)c(F)c(F)c2F)P(=O)(Oc2ccccc2)Oc2ccccc2)cc1 (centres unmarked) [Compound 109, (perfluorophenyl)methyl ((diphenoxyphosphoryl)(4-guanidinophenyl)methyl) carbamate]",pIC50,Plasmine (human plasma),3.60 to 5.00
same,pIC50,KLK8 (human),5.60 to 6.00
same,pIC50,uPA (recombinant),5.00 to 5.60
same,pIC50,KLK2 (human),6.00 to 7.00
same,pIC50,KLK1 (human),6.00 to 7.00
same,pIC50,Matriptase,5.60 to 6.00
same,pIC50,KLK4 [1],> 7.00
"COCCOCCOCCOC(=O)NC(c1ccc(NC(=N)N)cc1)P(=O)(Oc1ccccc1)Oc1ccccc1 (centres unmarked) [Compound 110, 2-(2-(2-methoxyethoxy)ethoxy)ethyl ((diphenoxyphosphoryl)(4-guanidinophenyl)methyl)carbamate]",pIC50,Plasmine (human plasma),3.60 to 5.00
same,pIC50,KLK8 (human),5.60 to 6.00
same,pIC50,uPA (recombinant),5.00 to 5.60
same,pIC50,KLK1 (human),5.00 to 5.60
same,pIC50,Matriptase,5.00 to 5.60
same,pIC50,KLK4 [1],> 7.00
same,kapp KLK4,"KLK4 [2]; apparent second-order rate constant, substrate 250 μM",19600 M⁻¹ s⁻¹
same,Irreversible (KLK4),KLK4 [2],Yes/
"N=C(N)Nc1ccc(C(NS(=O)(=O)c2ccccc2)P(=O)(Oc2ccccc2)Oc2ccccc2)cc1 (centres unmarked) [Compound 127, diphenyl ((4-guanidinophenyl)(phenylsulfonamido)methyl)phosphonate]",pIC50,Plasmine (human plasma); [3],5.00 to 5.60
same,pIC50,tPA (recombinant),5.00 to 5.60
same,pIC50,PlasmaKLK (human plasma),5.00 to 5.60
same,pIC50,uPA (recombinant); [4],5.00 to 5.60
same,pIC50,Thrombine (human plasma); [5],5.00 to 5.60
same,pIC50,FXa,5.00 to 5.60
same,pIC50,KLK4 [1]; [6],5.00 to 5.60
N=C(N)Nc1ccc(C(NS(=O)(=O)c2ccc(C(F)(F)F)cc2)P(=O)(Oc2ccccc2)Oc2ccccc2)cc1 (centres unmarked) [Compound 130],pIC50,KLK4 [1]; [6],> 7.00
"N=C(N)Nc1ccc(C(NC(=O)OCCOCCOCc2cn(CCOCCOCCOCCNC(=O)CCCC[C@H]3SC[C@H]4NC(=O)N[C@H]43)nn2)P(=O)(Oc2ccccc2)Oc2ccccc2)cc1 (stereo partly drawn) [Compound 135, 2-(2-((1-(13-oxo-17-((3aR,4R,6aS)-2-oxohexahydro-1H-thieno[3,4-d]imidazol-4-yl)-3,6,9-trioxa-12-azaheptadecyl)-1H-1,2,3-triazol-4-yl)methoxy)ethoxy)ethyl ((diphenoxyphosphoryl)(4-guanidinophenyl)methyl)carbamate]",pIC50,Plasmine (human plasma); [3],3.60 to 5.00
same,pIC50,PlasmaKLK (human plasma),3.60 to 5.00
same,pIC50,uPA (recombinant); [4],5.00 to 5.60
same,pIC50,KLK1 (human); [7],5.00 to 5.60
same,pIC50,"Matriptase; Matriptase, read-out: IC50 MAT",5.00 to 5.60
same,pIC50,Thrombine (human plasma); [5],3.60 to 5.00
same,pIC50,FXa,3.60 to 5.00
same,pIC50,KLK4 [1]; [6],> 7.00
"C#CCOCCOCCOC(=O)NC(Cc1ccc(NC(=N)N)cc1)P(=O)(Oc1ccccc1)Oc1ccccc1 (centres unmarked) [UPA2, reference compound]",pIC50,Plasmine (human plasma); [3],5.00 to 5.60
same,pIC50,tPA (recombinant),< 3.60
same,pIC50,PlasmaKLK (human plasma),3.60 to 5.00
same,pIC50,uPA (recombinant),> 7.00
same,pIC50,"Matriptase; Matriptase, read-out: IC50 MAT",6.00 to 7.00
same,pIC50,Thrombine (human plasma),3.60 to 5.00
same,pIC50,FXa,< 3.60
same,Irreversible (KLK4),KLK4 [2],No
diphenyl ((4-guanidinophenyl)(4-methoxyphenylsulfonamido)methyl)phosphonate [Compound 132],pIC50,Plasmine (human plasma); [3],5.00 to 5.60
same,pIC50,tPA (recombinant),5.00 to 5.60
same,pIC50,PlasmaKLK (human plasma),5.00 to 5.60
same,pIC50,uPA (recombinant); [4],5.00 to 5.60
same,pIC50,KLK1 (human); [7],5.00 to 5.60
same,pIC50,Thrombine (human plasma); [5],5.00 to 5.60
same,pIC50,FXa,5.00 to 5.60
same,pIC50,KLK4 [1]; [6],6.00 to 7.00
diphenyl ((4-guanidinophenyl)(phenylsulfonamido)methyl)phosphonate [Compound 128],pIC50,Plasmine (human plasma); [3],5.00 to 5.60
same,pIC50,tPA (recombinant),5.00 to 5.60
same,pIC50,PlasmaKLK (human plasma),5.00 to 5.60
same,pIC50,uPA (recombinant); [4],5.00 to 5.60
same,pIC50,Thrombine (human plasma); [5],5.00 to 5.60
same,pIC50,FXa,5.00 to 5.60
same,pIC50,KLK4 [1]; [6],6.00 to 7.00
